Measurements: patent US11207312B2, “Metallo-beta-lactamase inhibitors and methods of use thereof” (priority 2017, dated 2021)

How the values were obtained:
VIM-2 = VIM-2 (Escherichia coli, UniProt Q5U7L7); assay: biochemical; details: CCF2-FA fluorescence assay; read-out: VIM2 IC50
[1] = tested on: P. aeruginosa MB9799 (efflux-, IMP-1 plasmid); format: cell-based, Pseudomonas aeruginosa; details: efflux − (MB9799) strain; imipenem at 2 μg/mL; in the presence of a class A, C, D serine β-lactamase inhibitor closely related to relebactam
Procedure, shortened: (§1)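 Isogenic P. aeruginosa PAO1 strains (efflux+ and multiple-efflux-pump-disrupted) carrying plasmid IMP-1, with inducible AmpC, tested by broth microdilution. Imipenem and/or ceftazidime fixed, usually at CLSI breakpoint, plus fixed class A/C β-lactamase inhibitor; titrated MBL inhibitor concentration restoring susceptibility recorded and compared between strains as efflux fold difference.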

NDM-1 = NDM-1 (Klebsiella pneumoniae, UniProt C7C422); assay: biochemical; format: biochemical; details: CCF2-FA fluorescence assay, 2 hours at 25° C.
Procedure, shortened: (§2)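 Enzyme (NDM-1 1 pM, IMP-1 2 pM, VIM-1 30 pM final) and 1.25 μM CCF2-FA incubated with inhibitor (20 to 0.00063 μM) for 2 h at 25° C in 100 mM KH2PO4 pH 7, 0.005% Tween-20, 10 μM ZnSO4. Fluorescence read at ex 405/em 460 nm; IC50 by 4-parameter fit.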

[2] = tested on: P. aeruginosa MB9798 (efflux+, IMP-1 plasmid); details: for MB9798 MITC95 P. aeruginosa uM Efflux WT: efflux + (MB9798) strain, imipenem at 2 μg/mL, in the presence of a class A, C, D serine β-lactamase inhibitor closely related to relebactam; for Efflux ratio: fold difference between efflux+ (MB9798) and efflux− (MB9799) strains
Procedure, shortened: as §1

[3] = tested on: Serratia marcescens expressing IMP-1 (CL5741); format: cell-based; details: with imipenem 1 μg/ml; 95% inhibition of bacterial growth
Procedure, shortened: (§3)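 Read-out is absorbance after 22–24 h at 35 °C, with MITC95 taken as the lowest inhibitor concentration that, alongside imipenem at 1 μg/ml, suppresses 95% of bacterial growth. Inocula came from saline-suspended colonies diluted 1:100 into 1.1× CAMHB.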

[4] = tested on: Escherichia coli expressing NDM-1 (CLB30016); format: cell-based; details: with imipenem 1 μg/ml; 95% inhibition of bacterial growth
Procedure, shortened: as §3

[5] = tested on: Klebsiella pneumoniae expressing VIM-1 (IHMA599644); format: cell-based; details: with imipenem 1 μg/ml; 95% inhibition of bacterial growth
Procedure, shortened: as §3

VIM-1 = VIM-1 (Pseudomonas aeruginosa (strain ATCC 15692 / DSM 22644 / CIP 104116 / JCM 14847 / LMG 12228 / 1C / PRS 101 / PAO1), UniProt A0A0F7KYQ8); assay: biochemical; details: CCF2-FA fluorescence assay, 2 hours at 25° C.; read-out: VIM1 IC50
Procedure, shortened: as §2

IMP-1 = IMP-1 (Serratia marcescens, UniProt P52699); assay: biochemical; details: CCF2-FA fluorescence assay, 2 hours at 25° C.; read-out: IMP1 IC50
Procedure, shortened: as §2

IMP-1, sequence (P52699 whole entry, looked up, species assumed): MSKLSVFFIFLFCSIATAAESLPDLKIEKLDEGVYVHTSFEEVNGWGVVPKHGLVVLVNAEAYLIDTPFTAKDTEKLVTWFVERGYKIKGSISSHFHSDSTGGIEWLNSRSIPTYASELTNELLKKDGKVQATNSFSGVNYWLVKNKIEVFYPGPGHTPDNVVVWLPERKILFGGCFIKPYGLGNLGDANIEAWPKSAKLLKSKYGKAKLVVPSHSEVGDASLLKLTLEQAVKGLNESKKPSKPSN
NDM-1, sequence (C7C422 whole entry, looked up, species assumed): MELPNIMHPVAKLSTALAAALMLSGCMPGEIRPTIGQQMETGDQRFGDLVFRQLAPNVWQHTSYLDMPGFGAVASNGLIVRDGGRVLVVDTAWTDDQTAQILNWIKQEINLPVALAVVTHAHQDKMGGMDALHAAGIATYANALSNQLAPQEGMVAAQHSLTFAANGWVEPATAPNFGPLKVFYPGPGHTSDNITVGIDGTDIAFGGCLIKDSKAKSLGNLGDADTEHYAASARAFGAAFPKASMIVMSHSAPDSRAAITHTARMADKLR

| SMILES | IC50 (VIM-2) [nM] | MB9799 MITC95 P. aeruginosa uM Efflux Mutant [1] [µM] | IC50 (NDM-1) [nM] | MB9798 MITC95 P. aeruginosa uM Efflux WT [2] [µM] | Efflux ratio [2] | CL5741 S. marcescens MITC95 IMP [3] [µM] | CLB30016 E. coli MITC95 NDM [4] [µM] | IHMA599644 K. pneumoniae MITC95 VIM [5] [µM] | IC50 (VIM-1) [nM] | IC50 (IMP-1) [nM] |
| --- | --- | --- | --- | --- | --- | --- | --- | --- | --- | --- |
| NC[C@@H](O)CNS(=O)(=O)c1ccc(N2CCN(CCO)C(=O)C2)c(-c2nn[nH]n2)c1S(N)(=O)=O [Example 146, (R)-N1-(3-amino-2-hydroxypropyl)-4-(4-(2-hydroxyethyl)-3-oxopiperazin-1-yl)-3-(2H-tetrazol-5-yl)benzene-1,2-disulfonamide] | 1.77 | 1.56 | 2.32 | 1.56 | 1.00 | 3.13 | 1.56 | 6.25 | 0.31 | 2.25 |
| NCCN1CCN(c2ccc(S(=O)(=O)NC[C@H](O)CN)c(S(N)(=O)=O)c2-c2nn[nH]n2)CC1=O [Example 147, (R)-N1-(3-amino-2-hydroxypropyl)-4-(4-(2-aminoethyl)-3-oxopiperazin-1-yl)-3-(2H-tetrazol-5-yl)benzene-1,2-disulfonamide] | 56.2 | 0.78 | 27 | 3.13 | 4.00 | 0.78 | 0.39 | 1.56 | 0.28 | 39.6 |
| NS(=O)(=O)c1c(S(=O)(=O)N[C@@H]2CCNC2)ccc(N2CCCC(O)C2=O)c1-c1nn[nH]n1 (stereo partly drawn) [Example 148, 4-(3-hydroxy-2-oxopiperidin-1-yl)-N1-((R)-pyrrolidin-3-yl)-3-(2H-tetrazol-5-yl)benzene-1,2-disulfonamide] | 1.5 | 1.56 | 0.76 | 3.13 | 2.00 | 1.56 | 0.39 | 3.13 | 0.35 | 28.1 |
| NCC1CCN(c2ccc(S(=O)(=O)N[C@@H]3CCNC3)c(S(N)(=O)=O)c2-c2nn[nH]n2)C(=O)C1 (stereo partly drawn) [Example 149] | 48.1 | 3.13 | 4.46 | 6.25 | 2.00 | 1.56 | 0.20 | 1.56 | 0.96 | 104 |
| NOC1CCCN(c2ccc(S(=O)(=O)N[C@@H]3CCNC3)c(S(N)(=O)=O)c2-c2nn[nH]n2)C1=O (stereo partly drawn) [Example 150] | 1.52 | 3.13 | 0.62 | 12.50 | 4.00 | 6.25 | 1.56 | 12.50 | 0.38 | 17.1 |
| NS(=O)(=O)c1c(S(=O)(=O)N[C@@H]2CCNC2)ccc(N2CCCC(=O)C2=O)c1-c1nn[nH]n1 [Example 151, (R)-4-(2,3-dioxopiperidin-1-yl)-N1-(pyrrolidin-3-yl)-3-(2H-tetrazol-5-yl) benzene-1,2-disulfonamide] | 5.92 | 3.13 | 0.53 | 12.50 | 4.00 | 1.56 | 0.39 | 6.25 | 1.15 | 6.7 |
| NS(=O)(=O)c1c(S(=O)(=O)N[C@@H]2CCNC2)ccc(N2CCCC(=NO)C2=O)c1-c1nn[nH]n1 [Example 152, (R)-4-(3-(hydroxyimino)-2-oxopiperidin-1-yl)-N1-(pyrrolidin-3-yl)-3-(2H-tetrazol-5-yl)benzene-1,2-disulfonamide] | 0.74 | 1.56 | 0.08 | 3.13 | 2.00 | 1.56 | 0.39 | 3.13 | 0.16 | 6.8 |
| NS(=O)(=O)c1c(S(=O)(=O)N[C@@H]2CCNC2)ccc(N2CCCNC2=O)c1-c1nn[nH]n1 [Example 153, (R)-4-(2-oxotetrahydropyrimidin-1(2H)-yl)-N1-(pyrrolidin-3-yl)-3-(2H-tetrazol-5-yl)benzene-1,2-disulfonamide] | 1.1 | 1.56 | 0.21 | 3.13 | 2.00 | 1.56 | 0.78 | 3.13 | 0.2 | 7.23 |
| NS(=O)(=O)c1c(S(=O)(=O)N[C@@H]2CCNC2)ccc(N2CCCCC2=O)c1-c1nn[nH]n1 [Example 154, (R)-4-(2-oxopiperidin-1-yl)-N1-(pyrrolidin-3-yl)-3-(2H-tetrazol-5-yl)benzene-1,2-disulfonamide] | 0.73 | 1.56 | 0.35 | 3.13 | 2.00 | 1.56 | 1.56 | 6.25 | 0.26 | 8.46 |
| N[C@@H]1CCCN(c2ccc(S(=O)(=O)N[C@@H]3CCNC3)c(S(N)(=O)=O)c2-c2nn[nH]n2)C1=O [Example 155] | 6.87 | 3.13 | 5.12 | 6.25 | 2.00 | 3.13 | 0.39 | 1.56 | 2.14 | 81.4 |
| N[C@H]1CCCN(c2ccc(S(=O)(=O)N[C@@H]3CCNC3)c(S(N)(=O)=O)c2-c2nn[nH]n2)C1=O [Example 156, 4-((S)-3-amino-2-oxopiperidin-1-yl)-N1-((R)-pyrrolidin-3-yl)-3-(2H-tetrazol-5-yl)benzene-1,2-disulfonamide] | 7.16 | 1.56 | 4.64 | 12.50 | 8.00 | 1.56 | 0.39 | 1.56 | 2.14 | 67.7 |
| NS(=O)(=O)c1c(S(=O)(=O)N[C@@H]2CCNC2)ccc(N2CCC(CO)CC2=O)c1-c1nn[nH]n1 (stereo partly drawn) [Example 157, 4-(4-(hydroxymethyl)-2-oxopiperidin-1-yl)-N1-((R)-pyrrolidin-3-yl)-3-(2H-tetrazol-5-yl)benzene-1,2-disulfonamide] | 1.85 | 3.13 | 0.24 | 3.13 | 1.00 | 3.13 | 1.56 | 6.25 | 0.25 | 6.9 |
